# Results: article PMC5628579, “Potent mechanism-based sirtuin-2-selective inhibition by an in situ-generated occupant of the substrate-binding site, “selectivity pocket” and NAD^+-binding site” (Chemical Science, 2017)
# What was measured:
# SIRT2 [1] = target: T1, SIRT2 (Homo sapiens, UniProt Q8IXJ6); assay: SIRT2 substrate competition analysis and time-dependent inhibition; format: biochemical; set-up: purchased Biomol / Enzo Life Sciences (Fluor de Lys kit AK-556) BML SE-251-0500
# T1 sequence (Q8IXJ6 1-389): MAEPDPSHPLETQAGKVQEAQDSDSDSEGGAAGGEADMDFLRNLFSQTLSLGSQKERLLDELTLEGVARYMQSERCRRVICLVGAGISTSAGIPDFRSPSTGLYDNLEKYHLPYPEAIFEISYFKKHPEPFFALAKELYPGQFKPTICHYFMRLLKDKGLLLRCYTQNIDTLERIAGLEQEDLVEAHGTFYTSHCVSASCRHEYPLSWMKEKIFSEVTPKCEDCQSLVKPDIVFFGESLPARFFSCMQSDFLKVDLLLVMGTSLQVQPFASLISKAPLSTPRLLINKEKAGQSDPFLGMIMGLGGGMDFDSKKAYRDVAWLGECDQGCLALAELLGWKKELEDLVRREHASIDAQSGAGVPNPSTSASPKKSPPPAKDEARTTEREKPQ
# Protocol: added to the blank wells). […] Thereafter, […]
# which three independent curves were generated. […]
# added to the blank wells).
# The results were plotted using GraFit 7.0.3.
# SIRT2 substrate competition analysis for 36
# The assay follows in general the same procedure reported for the SIRT2 assay (vide supra), except for the following changes: reaction time = 45 min; [NAD+] = 2 mM; [substrate] = 50, 80, 150, or […]
# Mass spectrometric detection of the ADP-ribose conjugate
# Reactions were conducted for 5 min at 37 °C in 5 μL containing 1.9 μM SIRT2 (SignalChem), 500 μM NAD+ or 6-AE-NAD+ (BIOLOG Life Science Institute), and 1 mM 36, as well as 40 mM sodium phosphate buffer (pH = 7.0), containing 240 mM NaCl, 120 mM imidazole, 0.08 mM PMSF, 0.2 mM DTT, 20% glycerol, and 2% DMSO. Controls were measured in the absence of compounds or the enzyme. The reaction mixtures were diluted with 5 μL of water and purified using ZipTip-μC18 (Millipore). The fraction eluted with 2 μL of 50% acetonitrile containing α-cyano-4-hydroxycinnamic acid at a concentration of 5 mg/mL was directly subjected to MALDI-TOF MS analysis. MALDI-TOF mass spectra were acquired on an AB SCIEX TOF/TOF™ 5800 (AB SCIEX) in reflectron […]
# [2] = test system: acetylated α-tubulin (SIRT2 substrate); assay: Western blot of acetylated α-tubulin in MDA-MB-231 cells; format: cell-based, human; settings: 20 μM, 6 h
# Protocol: MCF-7 and MDA-MB-231 cells were plated in 96-well plates (initial density: 1 × 10^3 cells per well) and incubated at 37 °C. After 24 h, test compound solutions (50 μL/well) of varying concentrations in medium (DMEM and Leibovitz's L-15 for MCF-7 and MDA-MB-231 cells respectively) for were added to the cells at 37 °C under 5% CO2 in air and left to react for 72 h. Thereafter, the mixtures were treated with 10 μL of AlamarBlue® (AbD Serotec, #BUF012A), incubation was continued at 37 °C for 3 h. The fluorescence in each well was measured with an ARVOTM X3 microplate reader (λex = 540 nm; λem = 590 nm). With the obtained fluorescence readings, it was possible to calculate the percentage of cell growth.
# MDA-MB-231 cells (5 × 10^5 cells/2 mL/dish) were treated for 6 h with the test compounds at the indicated concentrations in the cell culture medium, before the cells were collected and extracted with SDS buffer. The protein concentrations of the lysates were determined using a BCA protein assay.
# Equivalent amounts of protein from each lysate were resolved in 5–20% SDS-polyacrylamide gels and transferred onto PVDF membranes. […]
# For the differentiation study, the medium was changed to DMEM supplemented with 2% FBS. After incubation with or without 36 for 72 h, the cell morphology was examined using a microscope (Olympus CKX41) and further analyzed with the Photomeasure software (Kenis Ltd.). […]
# SIRT2 [3] = target: T1, SIRT2; assay: Fluor de Lys SIRT2 assay
compound,measurement,setting,value
C[C@H](NC(=O)[C@H](CCCCNC(=S)CNC(=O)c1ccccc1Nc1cccc(OCCc2ccccc2)c1)NC(=O)OCc1ccccc1)C(N)=O [Compound 36],mode of SIRT2 inhibition (substrate competition analysis),"SIRT2 [1]; Lineweaver–Burk plot, NAD+ saturation",competitive inhibition with the acetylated lysine substrate
same,time dependence of SIRT2 inhibitory effect,"SIRT2 [1]; incubation 0–120 min with SIRT2, acetylated substrate, NAD+",time-dependent
same,acetylated α-tubulin level (western blot),[2],induced the accumulation of acetylated α-tubulin
same,IC50,SIRT2 [3],55 ± 3.5 nM
same,inhibition at 1 µM,SIRT2 [3]; read-out: % inhibition at 1 μM SIRT2,100 ± 3.4%
same,SIRT1 [IC50]/SIRT2 [IC50],SIRT2 [3]; selectivity ratio,28.4
same,SIRT3 [IC50]/SIRT2 [IC50],SIRT2 [3]; selectivity ratio,172.5
